The structures appear in SMILES notation. The source made the active and inactive calls. The rule behind the calls is not given here.

Data set [1] in a line: Effect on differentiation of ICR mouse cerebellar granule neuron assessed as effect on Ki67-negative cells with neurite outgrowth at 100 nM incubated for 48 hrs by TUBB3 staining based immunofluorescence assay. Format: tissue-based. Particulars: cerebellar granule neurone, 0.1 µM.
The nature of data set [2]: Effect on differentiation of ICR mouse cerebellar granule neuron assessed as effect on neurite length of Ki67-positive cells at 100 nM incubated for 48 hrs by TUBB3 staining based immunofluorescence assay. In kind it is tissue-based. As to conditions: cerebellar granule neurone, 0.1 µM.
Data set [3] in a line: Effect on differentiation of ICR mouse cerebellar granule neuron assessed as effect on Ki67-negative cells with neurite outgrowth at 100 nM irradiated with 4 J/cm2 light followed by incubation with compound for 48 hrs by TUBB3 staining based immunofluorescence assay. Format: tissue-based. Particulars: cerebellar granule neurone, 0.1 µM.
Data set [4] concerns NIH/3T3. The experiment in a line: Inhibition of SAG-induced hedgehog signalling in mouse NIH/3T3 cells assessed as reduction in Gli1 mRNA expression at 1 uM irradiated with 4 J/cm2 light followed by compound exposure and measured after 6 hrs by RT-PCR analysis. In kind it is cell-based.
A short description of data set [5]: Effect on differentiation of ICR mouse cerebellar granule neuron assessed as effect on neurite length of Ki67-negative cells at 100 nM incubated for 48 hrs by TUBB3 staining based immunofluorescence assay. Format: tissue-based. Particulars: cerebellar granule neurone, 0.1 µM.
A short description of data set [6]: Effect on differentiation of ICR mouse cerebellar granule neuron assessed as effect on neurite length of Ki67-negative cells at 100 nM irradiated with 4 J/cm2 light followed by incubation with compound for 48 hrs by TUBB3 staining based immunofluorescence assay. In kind it is tissue-based. Particulars: cerebellar granule neurone, 0.1 µM.
Data set [7] is described as follows: Photostability of compound assessed as drug degradation at 1 mM irradiated with 2 J/cm2 light by HPLC/MS analysis. In kind it is physicochemical. As to conditions: read-out: Drug degradation.
A short description of data set [8]: Effect on differentiation of ICR mouse cerebellar granule neuron assessed as effect on neurite length of Ki67-positive cells at 100 nM irradiated with 4 J/cm2 light followed by incubation with compound for 48 hrs by TUBB3 staining based immunofluorescence assay. In kind it is tissue-based. As to conditions: cerebellar granule neurone, 0.1 µM.
Data set [9] deals with Cerebellar granule neurone. Nature of the data set: Antiproliferative activity against ICR mouse cerebellar granule neurons assessed as reduction in Ki67 expression at 100 nM irradiated with 4 J/cm2 light followed by incubation with compound for 48 hrs by immunostaining analysis. In kind it is functional, tissue-based.
Data set [10] has as its system NIH3T3. Nature of the data set: Cytotoxicity against mouse NIH/3T3 cells assessed as reduction in cell viability at 1 to 10 uM irradiated with 4 J/cm2 light followed by compound exposure and measured after 6 hrs by MTT assay. Format: cell-based. As to conditions: nih3t3, 6 h, dose 1-10 µM. (Tetrazolium assays rely on reduction of a dye to a coloured formazan, in cell work by metabolically active cells.)

A short description of data set [11]: Photostability of compound assessed as drug degradation at 1 mM irradiated with 8 J/cm2 light by HPLC/MS analysis. In kind it is physicochemical. Particulars: read-out: Drug degradation.
Data set [12] can be described thus: Effect on differentiation of ICR mouse cerebellar granule neuron assessed as effect on Ki67-positive cells with low neurites at 100 nM irradiated with 4 J/cm2 light followed by incubation with compound for 48 hrs by TUBB3 staining based immunofluorescence assay. In kind it is tissue-based. As to conditions: cerebellar granule neurone, 0.1 µM.
The subject of data set [13] is Cerebellar granule neurone. Nature of the data set: Antiproliferative activity against ICR mouse cerebellar granule neurons assessed as reduction in Ki67 expression at 100 nM incubated for 48 hrs by immunostaining analysis. Format: functional, tissue-based.
Data set [14] relates to NIH/3T3. Nature of the data set: Inhibition of hedgehog signalling in mouse NIH/3T3 cells assessed as reduction in Gli1 mRNA expression at 1 uM measured after 6 hrs by RT-PCR analysis. In kind it is cell-based.
Data set [15] in a line: Effect on differentiation of ICR mouse cerebellar granule neuron assessed as effect on Ki67-positive cells with low neurites at 100 nM incubated for 48 hrs by TUBB3 staining based immunofluorescence assay. Format: tissue-based. Particulars: cerebellar granule neurone, 0.1 µM.
Data set [16] deals with NIH3T3. The experiment in a line: Cytotoxicity against mouse NIH/3T3 cells assessed as reduction in cell viability at 1 to 10 uM incubated for 6 hrs by MTT assay. As to conditions: nih3t3, 6 h, dose 1-10 µM. Format: cell-based.
Data set [17] has as its system NIH/3T3. The experiment in a line: Inhibition of SAG-induced hedgehog signalling in mouse NIH/3T3 cells assessed as reduction in Gli1 mRNA expression at 0.1 to 10 uM measured after 6 hrs by RT-PCR analysis. Format: cell-based. Particulars: dose 0.1-10 µM.
Data set [18] concerns NIH/3T3. Nature of the data set: Inhibition of SAG-induced hedgehog signalling in mouse NIH/3T3 cells assessed as reduction in Shh mRNA expression at 0.1 to 10 uM measured after 6 hrs by RT-PCR analysis. In kind it is cell-based. Particulars: dose 0.1-10 µM.
Data set [19] deals with NIH/3T3. The experiment in a line: Inhibition of hedgehog signalling in mouse NIH/3T3 cells assessed as reduction in Ptc mRNA expression at 0.1 to 10 uM measured after 6 hrs by RT-PCR analysis. Format: cell-based. As to conditions: dose 0.1-10 µM.
In data set [20] the test system is NIH/3T3. The experiment in a line: Inhibition of SAG-induced hedgehog signalling in mouse NIH/3T3 cells assessed as reduction in Gli1 mRNA expression at > 1 uM measured after 6 hrs by RT-PCR analysis. In kind it is cell-based. As to conditions: dose microM >1, time 6.0 hrs.
Data set [21] deals with NIH/3T3. Nature of the data set: Inhibition of SAG-induced hedgehog signalling in mouse NIH/3T3 cells assessed as reduction in Ptc mRNA expression at 0.1 to 10 uM measured after 6 hrs by RT-PCR analysis. Format: cell-based. Particulars: dose 0.1-10 µM.
In data set [22] the test system is NIH/3T3. The experiment in a line: Inhibition of hedgehog signalling in mouse NIH/3T3 cells assessed as reduction in Shh mRNA expression at 0.1 to 10 uM measured after 6 hrs by RT-PCR analysis. Format: cell-based. As to conditions: dose 0.1-10 µM.
Data set [23] relates to NIH/3T3. Nature of the data set: Inhibition of hedgehog signalling in mouse NIH/3T3 cells assessed as reduction in Gli1 mRNA expression at 0.1 to 10 uM measured after 6 hrs by RT-PCR analysis. Format: cell-based. Particulars: dose 0.1-10 µM.

As for `CCCN(C(=O)OC(C)c1cc(OC)c(OCCCC(=O)O)cc1[N+](=O)[O-])[C@H]1CC[C@H](N(Cc2cccc(-c3ccncc3)c2)C(=O)c2sc3ccccc3c2Cl)CC1` (stereo partly specified), the Activity entry in data set [1], in data set [2], in data set [3], in data set [5], in data set [6] and in data set [8] was “Non-Toxic” throughout. The Activity entry in data set [10], in data set [12], in [15] and in data set [16] was “Non-Toxic” throughout. Also, the inhibition entry in data set [4] is “Active”. The degraded at 1000 µM in data set [7] was determined as 90%; in [11], 100%. Moreover, the result in data set [9] was Active. Further, the outcome in data set [13] was inactive. The inhibition result in data set [14] was “inactive”.

On to `CCCN[C@H]1CC[C@H](N(Cc2cccc(-c3ccncc3)c2)C(=O)c2sc3ccccc3c2Cl)CC1`, for which the inhibition result in data set [17], in data set [20] and in data set [21] was “Active” throughout. For the same compound, the Activity result in [1], in data set [2], in [5], in data set [10], in [15] and in data set [16] was “Non-Toxic” each time. The inhibition result in data set [18], in data set [19], in data set [22] and in [23] was “inactive” throughout. Besides, in data set [9], the outcome was Active.

Consider `CC1=C2C[C@H]3[C@@H](CC=C4C[C@@H](O)CC[C@@]43C)[C@@H]2CC[C@]12O[C@@H]1C[C@H](C)CN[C@H]1[C@H]2C`, for which the inhibition entry in data set [17] and in data set [21] was “Active” each time. Moreover, the inhibition result in data set [18], in data set [19], in data set [22] and in data set [23] was “inactive” each time.

For the origin of these results see ChEMBL document CHEMBL4814058, “Light-inducible control of cellular proliferation and differentiation by a Hedgehog signaling inhibitor” (Bioorg Med Chem, 2021).
